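1) Cells in 96-well plates. 2) Compound, 48 h, 5 concentrations. 3) Linear interpolation between surrounding doses. 4) Unreached endpoint = highest concentration. GI50 = concentration required for 50% inhibition of growth.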 Activity calls are given as the source filed them. No stated cut-off is given here; in the data, active = GI50 up to about 1.1 µM and inactive = higher.

These results are taken from ChEMBL document CHEMBL1201862, “PubChem BioAssay data set” (2004).

Test systems include SF-268; UO-31; HOP-92; HT-29; ACHN; UACC-257; UACC-62; Malme-3M; M14; NCI-H522; SK-OV-3; OVCAR-8; SK-MEL-28; SK-MEL-5; SF-539; HOP-62; NCI-H23; OVCAR-5.
Assay in all cases: growth of human tumour cells (NCI), 48 h

As for `O=C1C=C(O)c2nc(O)ccc2C1=O`, the GI50 with SF-268, in the test on UO-31, in the test on HOP-92, in the test on HT-29, in the test on ACHN and in the test with UACC-257 was > 100 µM (inactive) in each case. Also, the GI50 in the test on UACC-62, in the test with Malme-3M, in the test with M14, in the test on NCI-H522, with SK-OV-3 and with OVCAR-8 was > 100 µM (inactive) throughout. Also, the GI50 with SK-MEL-28, in the test with SK-MEL-5, with SF-539, with HOP-62 and in the test with NCI-H23 was > 100 µM (inactive) each time.
For the compound `Cc1cc(C)[n+]2c(c1)C=CC2.[O-][Cl+3]([O-])([O-])[O-]`, the GI50 in the test on SF-268 was 64 µM (inactive); in the test with UO-31, 39.4 µM (inactive); in the test on HOP-92 it was 8.57 µM (inactive); in the test on HT-29, 15.9 µM (inactive); with ACHN, 17.7 µM (inactive); in the test with UACC-257, 11.5 µM (inactive). Besides, the GI50 in the test on Malme-3M was 1.65 µM (inactive); with M14 it was 8.11 µM (inactive); in the test on OVCAR-5 it was > 100 µM (inactive); in the test on NCI-H522 it was 3.21 µM (inactive); in the test with OVCAR-8, 28.6 µM (inactive); with SK-MEL-28 it was 12.4 µM (inactive). The GI50 in the test with SK-MEL-5 is 13.9 µM (inactive); in the test with SF-539 it was 22.8 µM (inactive); in the test with HOP-62 it was 57.1 µM (inactive); with NCI-H23 it was 15.7 µM (inactive).
As for `CC(=O)NCc1c(C(N)=O)ncn1Cc1ccccc1`, the GI50 in the test with HOP-92, in the test on HT-29, in the test on ACHN, with UACC-257, in the test with UACC-62 and in the test with M14 was > 100 µM (inactive) each time. Also, the GI50 in the test with SK-OV-3, in the test on OVCAR-8, with SK-MEL-28, in the test on SK-MEL-5, in the test with SF-539 and with HOP-62 was > 100 µM (inactive) in each case. For the same compound, the GI50 in the test with NCI-H23 is > 100 µM (inactive).
In the case of `CC(=O)OC1COC(N2C(=O)C(=O)c3ccccc32)C(OC(C)=O)C1OC(C)=O` (stereo not drawn), the GI50 in the test on SF-268, in the test with UO-31, in the test with HOP-92, in the test on HT-29, in the test on ACHN and in the test on UACC-257 was > 100 µM (inactive) in each case. Further, the GI50 in the test with UACC-62 was 68.9 µM (inactive); in the test on Malme-3M, > 100 µM (inactive); in the test on M14, > 100 µM (inactive); in the test on NCI-H522 it was > 100 µM (inactive); in the test on SK-OV-3 it was > 100 µM (inactive); in the test with OVCAR-8, > 100 µM (inactive). The GI50 in the test with SK-MEL-28, in the test on SK-MEL-5, with SF-539, in the test on HOP-62 and in the test on NCI-H23 was > 100 µM (inactive) throughout.
As for `O/N=C1/C(=C/c2ccc(Oc3ccccc3)cc2)CCCC1C(NO)c1ccc(Oc2ccccc2)cc1` (stereo not drawn), the GI50 with SF-268 was 37.2 µM (inactive); in the test on UO-31, 21 µM (inactive); in the test with HOP-92 it was 17.9 µM (inactive); with HT-29 it was 16.1 µM (inactive); in the test with ACHN it was 24 µM (inactive); in the test with UACC-257, 50.1 µM (inactive). Also, the GI50 with UACC-62 is 43.9 µM (inactive); in the test on Malme-3M, 44.1 µM (inactive); in the test with M14 it was 40.6 µM (inactive); in the test on OVCAR-5 it was 63 µM (inactive); in the test with SK-OV-3 it was > 100 µM (inactive); in the test on OVCAR-8 it was 26.4 µM (inactive). For the same compound, the GI50 in the test on SK-MEL-28 was 61.2 µM (inactive); in the test with SK-MEL-5 it was 13.4 µM (inactive); in the test with SF-539, 40 µM (inactive); in the test on HOP-62, > 100 µM (inactive); in the test with NCI-H23, 16.9 µM (inactive).
On to `CN(C)c1nc(N(C)C)sc(=O)n1`, for which the GI50 in the test on SF-268, in the test on UO-31, with HOP-92, in the test with HT-29, in the test with ACHN and with UACC-257 was > 100 µM (inactive) in each case. Further, the GI50 with UACC-62, with M14, in the test with OVCAR-5, with NCI-H522, in the test on SK-OV-3 and with OVCAR-8 was > 100 µM (inactive) throughout. The GI50 in the test on SK-MEL-28, with SK-MEL-5, in the test with SF-539, in the test on HOP-62 and in the test with NCI-H23 was > 100 µM (inactive) throughout.
Take `COc1ccc(C(c2c(O)c3ccccc3n(-c3ccccc3)c2=O)c2c(O)c3ccccc3n(-c3ccccc3)c2=O)cc1`: the GI50 was > 100 µM (inactive) in the test on SF-268; > 100 µM (inactive) with UO-31; 49.2 µM (inactive) in the test with HOP-92; > 100 µM (inactive) with ACHN; > 100 µM (inactive) in the test with Malme-3M; > 100 µM (inactive) in the test on OVCAR-5. The GI50 with NCI-H522, in the test on SK-MEL-28, with SK-MEL-5, with SF-539, with HOP-62 and in the test on NCI-H23 was > 100 µM (inactive) in each case.
For the compound `CC(=O)Oc1ccc(O)c2c1CCCC2`, the GI50 in the test with SF-268 was 58.3 µM (inactive); in the test on UO-31, > 45.5 µM (inactive); in the test with HT-29 it was 35.7 µM (inactive); in the test with ACHN, 15.2 µM (inactive); in the test on UACC-257 it was 39.9 µM (inactive); in the test with UACC-62, > 75.5 µM (inactive). Further, the GI50 with Malme-3M was > 40.5 µM (inactive); in the test with M14, 24.2 µM (inactive); with OVCAR-5 it was > 100 µM (inactive); with NCI-H522 it was 13.6 µM (inactive); in the test on SK-OV-3, 46.7 µM (inactive); with OVCAR-8 it was 18 µM (inactive). The GI50 in the test on SK-MEL-28 is 66.4 µM (inactive); in the test on SK-MEL-5 it was > 45.7 µM (inactive); with SF-539, > 100 µM (inactive); with HOP-62 it was > 100 µM (inactive); in the test on NCI-H23 it was > 52.8 µM (inactive).
As to `C#C[C@@]1(O)CCCC2=CC(=O)C[C@]21C`, the GI50 with SF-268, with UO-31, in the test on HOP-92, in the test with HT-29, in the test on ACHN and in the test on UACC-257 was > 100 µM (inactive) each time. The GI50 in the test on Malme-3M, in the test on M14, with OVCAR-5, in the test on NCI-H522, in the test on SK-OV-3 and with OVCAR-8 was > 100 µM (inactive) in each case. For the same compound, the GI50 in the test on SK-MEL-28, in the test on SK-MEL-5, with SF-539 and in the test with NCI-H23 was > 100 µM (inactive) throughout.
Take `C[N+](C)(C)CC1CCCCC1O` (stereo not drawn): the GI50 with SF-268, in the test on UO-31, in the test on HOP-92, in the test on HT-29, in the test on ACHN and in the test on UACC-257 was > 100 µM (inactive) in each case. Further, the GI50 with UACC-62 was > 100 µM (inactive); in the test with M14, > 100 µM (inactive); in the test with OVCAR-5 it was > 100 µM (inactive); in the test on NCI-H522, 63 µM (inactive); in the test on SK-OV-3, > 100 µM (inactive); in the test on OVCAR-8, > 100 µM (inactive). Also, the GI50 with SK-MEL-28, in the test on SK-MEL-5, with SF-539, in the test with HOP-62 and with NCI-H23 was > 100 µM (inactive) in each case.
`CCCC(C)NC1=C(NC(C)=O)C(=O)c2ccccc2C1=O` (stereo not drawn): the GI50 in the test on SF-268 was > 100 µM (inactive); with UO-31 it was > 100 µM (inactive); with HOP-92, 47.9 µM (inactive); in the test with HT-29 it was > 100 µM (inactive); in the test with ACHN, > 100 µM (inactive); in the test on UACC-257 it was > 100 µM (inactive). In addition, the GI50 in the test with UACC-62 was > 100 µM (inactive); in the test on Malme-3M, 36.1 µM (inactive); with M14 it was > 100 µM (inactive); in the test on NCI-H522, 64.7 µM (inactive); with SK-OV-3, > 100 µM (inactive); with OVCAR-8, > 100 µM (inactive). In addition, the GI50 was > 100 µM (inactive) in the test with SK-MEL-28; 73.8 µM (inactive) with SK-MEL-5; > 100 µM (inactive) in the test with SF-539; > 100 µM (inactive) with HOP-62; > 100 µM (inactive) in the test on NCI-H23.
Take `CC1=C(CO)C(=O)O[C@@H]([C@@H](C)[C@H]2CC[C@H]3[C@@H]4C[C@H]5O[C@]56[C@@H](O)C=CC(=O)[C@]6(C)[C@H]4CC[C@]23C)C1` [WITHAFERIN A]: the GI50 was 0.352 µM (active) with SF-268; 1.09 µM (active) with UO-31; 0.467 µM (active) in the test on HOP-92; 0.417 µM (active) in the test with HT-29; 1.7 µM (inactive) with ACHN; 1.59 µM (inactive) in the test with UACC-257. Also, the GI50 in the test on UACC-62 was 1.45 µM (inactive); with Malme-3M, 0.243 µM (active); in the test with M14, 0.423 µM (active); in the test on OVCAR-5, 1.91 µM (inactive); in the test on NCI-H522 it was 0.0335 µM (active); with OVCAR-8 it was 0.374 µM (active). The GI50 in the test with SK-MEL-28 is 0.55 µM (active); in the test with SK-MEL-5 it was 1.68 µM (inactive); in the test on SF-539, 1.34 µM (inactive); in the test with HOP-62, 2.04 µM (inactive); with NCI-H23, 0.221 µM (active).
